Laboratory results as given in the NIST ThermoML archive (doi:10.1016/j.jct.2019.03.023).
Values joined by “and” are separate entries in the source; they are usually repeats but may differ in a detail not shown here. Equal entries are not always repeated.

Experiment: molar heat capacity at constant volume
Settings: Vacuum adiabatic calorimetry

CC(C)O [propan-2-ol]
Fluid (supercritical or subcritical phases)
Settings | molar heat capacity at constant volume
314.29 K, Mass density=329.2 kg/m3 | 177.46 J/K/mol
314.52 K, Mass density=329.2 kg/m3 | 182.81 J/K/mol
314.8 K, Mass density=329.2 kg/m3 | 184.67 J/K/mol
315.05 K, Mass density=329.2 kg/m3 | 181.49 J/K/mol
315.3 K, Mass density=329.2 kg/m3 | 177.88 J/K/mol
315.42 K, Mass density=329.2 kg/m3 | 176.26 J/K/mol
315.61 K, Mass density=329.2 kg/m3 | 174.88 J/K/mol
315.8 K, Mass density=329.2 kg/m3 | 178.6 J/K/mol
317.44 K, Mass density=697.69 kg/m3 | 170.85 J/K/mol
317.57 K, Mass density=697.69 kg/m3 | 172.41 J/K/mol
317.7 K, Mass density=697.69 kg/m3 | 172.71 J/K/mol
317.95 K, Mass density=697.69 kg/m3 | 168.15 J/K/mol
318.07 K, Mass density=697.69 kg/m3 | 168.15 J/K/mol
318.2 K, Mass density=697.69 kg/m3 | 171.69 J/K/mol
318.32 K, Mass density=697.69 kg/m3 | 171.33 J/K/mol
318.45 K, Mass density=697.69 kg/m3 | 173.98 J/K/mol
318.57 K, Mass density=697.69 kg/m3 | 170.25 J/K/mol
318.7 K, Mass density=697.69 kg/m3 | 175.24 J/K/mol
331.87 K, Mass density=697.69 kg/m3 | 192 J/K/mol
332.06 K, Mass density=697.69 kg/m3 | 191.34 J/K/mol
332.12 K, Mass density=697.69 kg/m3 | 189.48 J/K/mol
332.24 K, Mass density=697.69 kg/m3 | 188.82 J/K/mol
332.36 K, Mass density=697.69 kg/m3 | 187.74 J/K/mol
332.48 K, Mass density=697.69 kg/m3 | 189.96 J/K/mol
332.6 K, Mass density=697.69 kg/m3 | 190.26 J/K/mol
332.72 K, Mass density=697.69 kg/m3 | 187.74 J/K/mol
332.85 K, Mass density=697.69 kg/m3 | 192.36 J/K/mol
333.03 K, Mass density=697.69 kg/m3 | 188.7 J/K/mol
340.8 K, Mass density=697.69 kg/m3 | 195.19 J/K/mol
340.92 K, Mass density=697.69 kg/m3 | 192.6 J/K/mol
341.04 K, Mass density=697.69 kg/m3 | 196.99 J/K/mol
341.16 K, Mass density=697.69 kg/m3 | 193.33 J/K/mol
341.28 K, Mass density=697.69 kg/m3 | 197.83 J/K/mol
341.4 K, Mass density=697.69 kg/m3 | 196.15 J/K/mol
341.52 K, Mass density=697.69 kg/m3 | 194.89 J/K/mol
341.64 K, Mass density=697.69 kg/m3 | 195.13 J/K/mol
341.76 K, Mass density=697.69 kg/m3 | 196.21 J/K/mol
341.91 K, Mass density=329.2 kg/m3 | 203.12 J/K/mol
342.08 K, Mass density=329.2 kg/m3 | 202.22 J/K/mol
342.19 K, Mass density=329.2 kg/m3 | 203.54 J/K/mol
342.32 K, Mass density=329.2 kg/m3 | 207.27 J/K/mol
342.49 K, Mass density=329.2 kg/m3 | 201.32 J/K/mol
342.67 K, Mass density=329.2 kg/m3 | 203.72 J/K/mol
342.79 K, Mass density=329.2 kg/m3 | 202.76 J/K/mol
342.91 K, Mass density=329.2 kg/m3 | 201.62 J/K/mol
343.03 K, Mass density=329.2 kg/m3 | 204.08 J/K/mol
355.67 K, Mass density=697.69 kg/m3 | 207.33 J/K/mol
355.78 K, Mass density=697.69 kg/m3 | 211.29 J/K/mol
355.9 K, Mass density=697.69 kg/m3 | 211.9 J/K/mol
356.02 K, Mass density=697.69 kg/m3 | 209.49 J/K/mol
356.13 K, Mass density=697.69 kg/m3 | 211.11 J/K/mol
356.25 K, Mass density=697.69 kg/m3 | 212.68 J/K/mol
356.37 K, Mass density=697.69 kg/m3 | 211.77 J/K/mol
356.48 K, Mass density=697.69 kg/m3 | 211.96 J/K/mol
369.05 K, Mass density=329.2 kg/m3 | 225.9 J/K/mol
369.16 K, Mass density=329.2 kg/m3 | 220.01 J/K/mol
369.28 K, Mass density=329.2 kg/m3 | 231.31 J/K/mol
369.39 K, Mass density=329.2 kg/m3 | 222.83 J/K/mol
369.5 K, Mass density=329.2 kg/m3 | 225.96 J/K/mol
369.67 K, Mass density=329.2 kg/m3 | 223.55 J/K/mol
369.84 K, Mass density=329.2 kg/m3 | 221.75 J/K/mol
369.96 K, Mass density=329.2 kg/m3 | 221.03 J/K/mol
370.07 K, Mass density=329.2 kg/m3 | 219.47 J/K/mol
370.24 K, Mass density=697.69 kg/m3 | 222.11 J/K/mol
370.36 K, Mass density=697.69 kg/m3 | 222.41 J/K/mol
370.47 K, Mass density=697.69 kg/m3 | 220.43 J/K/mol
370.58 K, Mass density=697.69 kg/m3 | 219.77 J/K/mol
370.7 K, Mass density=697.69 kg/m3 | 222.05 J/K/mol
370.81 K, Mass density=697.69 kg/m3 | 222.29 J/K/mol
370.92 K, Mass density=697.69 kg/m3 | 220.61 J/K/mol
371.04 K, Mass density=697.69 kg/m3 | 221.57 J/K/mol
378.45 K, Mass density=697.69 kg/m3 | 221.99 J/K/mol
378.57 K, Mass density=697.69 kg/m3 | 220.67 J/K/mol
378.68 K, Mass density=697.69 kg/m3 | 223.19 J/K/mol
378.79 K, Mass density=697.69 kg/m3 | 223.37 J/K/mol
378.9 K, Mass density=697.69 kg/m3 | 220.97 J/K/mol
379.01 K, Mass density=697.69 kg/m3 | 222.41 J/K/mol
379.24 K, Mass density=697.69 kg/m3 | 222.71 J/K/mol
379.35 K, Mass density=697.69 kg/m3 | 221.33 J/K/mol
379.46 K, Mass density=697.69 kg/m3 | 221.99 J/K/mol
379.57 K, Mass density=697.69 kg/m3 | 220.55 J/K/mol
379.68 K, Mass density=697.69 kg/m3 | 222.53 J/K/mol
379.79 K, Mass density=697.69 kg/m3 | 221.81 J/K/mol
379.9 K, Mass density=697.69 kg/m3 | 222.53 J/K/mol
380.02 K, Mass density=697.69 kg/m3 | 224.03 J/K/mol
380.13 K, Mass density=697.69 kg/m3 | 223.07 J/K/mol
380.24 K, Mass density=697.69 kg/m3 | 222.05 J/K/mol
380.35 K, Mass density=697.69 kg/m3 | 223.97 J/K/mol and 182.81 J/K/mol
380.42 K, Mass density=697.69 kg/m3 | 185.51 J/K/mol
380.56 K, Mass density=697.69 kg/m3 | 185.69 J/K/mol
380.68 K, Mass density=697.69 kg/m3 | 187.44 J/K/mol

Settings | molar heat capacity at constant volume [J/K/mol]
380.35 K, Liquid | 182.81
